According to paper PMC4608362, “The therapeutic effect of chlorogenic acid against Staphylococcus aureus infection through sortase A inhibition” (Frontiers in Microbiology, 2015):

What was measured:
Details in all cases: read-out: Binding constants KA (1 × 10^5) L⋅mol^-1 (converted)
Sortase A (SrtA) [1] = target: T1, Sortase A (SrtA) (Staphylococcus aureus, UniProt Q2FV99, G192A); assay: fluorescence spectroscopy quenching with purified mutant, binding constant KA, n = […]
T1 construct: SrtAΔN59 (residues 60–206)

Sortase A (SrtA) [2] = target: T2, Sortase A (SrtA) (Staphylococcus aureus, UniProt Q2FV99, C184A); assay: as above
T2 construct: SrtAΔN59 (residues 60–206)

Sortase A (SrtA) [3] = target: T3, Sortase A (SrtA) (Staphylococcus aureus, UniProt Q2FV99); assay: fluorescence spectroscopy quenching, binding constant KA, n = […]; also FRET inhibition of purified SrtAΔN59 (IC50 […])
T3 construct: SrtAΔN59 (residues 60–206)

O=C(/C=C/c1ccc(O)c(O)c1)O[C@@H]1C[C@](O)(C(=O)O)C[C@@H](O)[C@H]1O [CHA, chlorogenic acid]
Kd (Sortase A (SrtA) [1]): 2000 nM | Kd (Sortase A (SrtA) [2]): 2130 nM | Kd (Sortase A (SrtA) [3]): 1120 nM
